Tests used:
[1] = test system: SOCE (store operated calcium entry) in CHO cells; experiment: Assay of SOCE (store operated calcium entry)-inhibiting action; assay type: cell-based, Chinese hamster; conditions: CHO cells, thapsigargin; for inhibition at 10 µM / inhibition at 30 µM / inhibition at 100 µM: Cricetulus griseus, CHO, read-out: SOCE level (percentage of inhibition)
Protocol: The extracellular fluid (i.e., medium) of cultured Chinese hamster ovary (CHO) cells was replaced by BSS containing no calcium. One minute later, a test compound was added. Two minutes later, 1 μM thapsigargin was added to cause depletion of the intracellular calcium store. Nine minutes later, calcium chloride (final concentration: 2 mM) was added to the extracellular fluid. The SOCE-inhibiting action levels at different compound concentrations after the addition of calcium chloride were determined as the percentage of inhibition (%) by evaluating the influence of the compound on the degree of increase in the intracellular calcium concentration.
(§1) Hereafter, the numerals in parentheses written after the TG level, the SOCE level, and the IICR level correspond to the test compound concentrations. The number following the name of each title compound used in the Examples below represents a compound ID number designated arbitrarily by the present inventors.

[2] = test system: IICR (IP3 induced calcium release) in CHO cells; experiment: Assay of IICR (IP3 induced calcium release)-inhibiting action; assay type: cell-based, Chinese hamster; conditions: CHO cells, 10 μM ATP; for inhibition at 10 µM / inhibition at 30 µM / inhibition at 100 µM: Cricetulus griseus, CHO, read-out: IICR level (percentage of inhibition); for inhibition at 30 µM: test compound 30 μmol; for inhibition at 100 µM: test compound 100 μmol
Protocol: The extracellular fluid (i.e., medium) of cultured CHO cells was replaced by BSS containing calcium. One minute later, a test compound was added. Two minutes later, 10 μM ATP was added. The IICR-inhibiting action levels at different compound concentrations after the addition of ATP were determined as the percentage of inhibition (%) by evaluating the influence of the compound on the degree of increase in the intracellular calcium concentration.
as §1

Row | Structure (SMILES) | inhibition at 10 µM ([1]; test compound 10 μmol) | inhibition at 30 µM ([1]; test compound 30 μmol) | inhibition at 100 µM ([1]; test compound 100 μmol) | inhibition at 10 µM ([2]; test compound 10 μmol) | inhibition at 30 µM [2] | inhibition at 100 µM [2] | SOCE level (percentage of inhibition) ([1]; test compound 10 μmol) | SOCE level (percentage of inhibition) ([1]; test compound 30 μmol) | SOCE level (percentage of inhibition) ([1]; test compound 100 μmol) | IICR level (percentage of inhibition) ([2]; test compound 10 μmol)
1 | CC(C)(C)N(CCO)CCC(=O)c1ccncc1 [Example 30, 2-(N-t-butyl-2-hydroxyethyl)aminoethyl-4-pyridylketone] | 0% | 0% | 0% | 20% | 10% | 10% | – | – | – | –
2 | CN(CCC(=O)c1ccncc1)Cc1ccccc1 [Example 31, 2-(N-methylbenzyl)aminoethyl-4-pyridylketone] | 0% | 0% | 0% | 40% | 60% | 80% | – | – | – | –
3 | CCCCN(CCO)CCC(=O)c1ccncc1 [Example 51, 2-(N-hydroxyethylbutyl)aminoethyl-4-pyridylketone] | 0% | 0% | 0% | 0% | 20% | 100% | – | – | – | –
4 | CC(C)N(CCO)CCC(=O)c1ccsc1 [Example 56, 2-(hydroxyethylisopropyl)aminoethyl-3-thiophenylketone] | 0% | 0% | 0% | 0% | 0% | 50% | – | – | – | –
5 | CC(C)N(CCC(=O)c1ccc(Cc2ccccc2)cc1)Cc1ccccc1 [Example 64, 2-(N-isopropylbenzyl)aminoethyl-4-benzylphenylketone] | – | – | – | – | 70% | 96% | 0% | 0% | 30% | 50%
6 | Cc1ccc(C(=O)CCN(Cc2ccccc2)C(C)C)cc1 [Example 65, 2-(N-isopropylbenzyl)aminoethyl-4-methylphenylketone] | 0% | 0% | 30% | 30% | 10% | 30% | – | – | – | –
7 | CC(C)N(CCC(=O)c1ccc2ccccc2c1)Cc1ccccc1 [Example 66, 2-(N-isopropylbenzyl)aminoethyl-2-naphthylketone] | 0% | 0% | 0% | 10% | 10% | 70% | – | – | – | –
8 | C=CC(=O)c1cccc2ccccc12 [Example 68, 1-acryloylnaphthalene] | 0% | 10% | 70% | 80% | 90% | 95% | – | – | – | –
9 | CC(C)N(CCC(=O)c1ccccc1)Cc1ccccc1 [Example 69, 2-(isopropylbenzyl)aminoethylphenylketone] | 0% | 10% | 20% | 20% | 20% | 90% | – | – | – | –
10 | O=C(CCN(c1ccccc1)c1ccccc1)c1cccc2ccccc12 [Example 70, 2-N-diphenylaminoethyl naphthylketone] | 0% | 10% | 20% | 10% | 0% | 40% | – | – | – | –
11 | CN(CCC(=O)c1ccc2ccccc2c1)Cc1ccccc1 [Example 71, 2-(N-methylbenzyl)aminoethyl naphthylketone] | 0% | 0% | – | 0% | – | – | – | – | – | –
12 | COc1ccc(C(=O)CCN(Cc2ccccc2)C(C)C)cc1 [Example 72, 2-(N-isopropylbenzyl)aminoethyl-4-methoxyphenylketone] | 0% | 10% | 20% | 20% | 20% | 70% | – | – | – | –
